{"source": "patent US20050208037A1", "about": "“Thioredoxin increases redox-cycling of anticancer agents thereby sensitizes cancer cells to apoptosis” (Board of Regents, The University of Texas System, priority 2003, published 2005)", "key": {"[1]": {"system": "Trx9 cells (MCF-7 clones expressing thioredoxin)", "experiment": "Superoxide production in cell lysate by SOD-inhibitable reduction of ferricytochrome c", "type": "biochemical, human", "conditions": "for inhibition of SOD-inhibitable rate of O2— generation: inhibitor 50 μM, then 10 μM doxorubicin", "procedure": "Determination of superoxide production by reduction of ferricytochrome c. Superoxide production was measured as superoxide dismutase (SOD) inhibitable reduction of ferricytochrome c (Azzi et al. 1975). Cells were sonicated in potassium phosphate buffer (0.05M, pH 7.8 plus 1 mM EDTA), centrifuged and the supernatant was used for the assay. To determine the superoxide generation in the cell lysate, the supernatant was incubated with 10 μM drug and 10 μM cytochrome c, with or without 1U SOD to determine SOD inhibitable rate. The specificity of thioredoxin mediated superoxide generation in the supernatant was detected by pre-incubation of cell lysates with anti-human thioredoxin antibody (American Diagnostica, Greenwich, Conn.) for 15 min. All reactions were performed in triplicate. The reduction of ferricytochrome c was measured both in kinetic and end point mode with path check on for 1 hr duration at a wavelength of 550 nm using a Spectramax 190 plate reader (Molecular Devices). Total protein was quantified using Bradford protein assay (Biorad) and the superoxide generation was determined per milligram of protein in the extracts."}, "p53 in Trx9 cells [2]": {"system": "p53 in Trx9 cells", "experiment": "Western blotting of p53 and phospho-p53 (ser-15)", "type": "cell-based, human", "conditions": "daunomycin treated Trx9 cells, 4 hr", "description": "Western blotting. Equal amounts of protein were resolved on 10% SDS-polyacrylamide gel electrophoresis, and transferred to nitrocellulose membrane (Hybond-ECL, Amersham Pharmacia Biotech) immunoblotted with anti-p53 or anti-p53 phospho ser-15 (Cell Signaling Technology, Beverly, Mass.) and visualized using Lumiglo system with antirabbit conjugated HRP. For cytochrome c determination the cytosolic protein was resolved on 15% SDS-PAGE and immunoblotted using anti-cytochrome c (BD Pharmingen, San Diego, Calif.) and visualized using the ECL system (Amersham Pharmacia Biotech, Piscataway, N.J.) and anti-mouse IgG conjugated HRP (Santa Cruz Biotech, California)."}, "p53 in Trx9 cells [3]": {"system": "p53 in Trx9 cells", "experiment": "Electrophoretic mobility shift assay of p53 DNA binding", "type": "cell-based, human", "conditions": "daunomycin treated Trx9 cells, 4 hr", "procedure": "Nuclear Extract preparation. Nuclear extract was prepared as described previously (Das, 2001). […] The extracts were then centrifuged at 14,000 rpm for 25 min and the supernatant was saved as nuclear extract in −70° C. for further experiments. Protein was quantified using Bradford protein assay (Biorad).\nElectrophoretic Mobility shift assay (EMSA). For the EMSA the p53 consensus oligonucleotide was obtained from Genosys 5′-[…]-3′ (SEQ ID NO:9) and end labeled using T4 Poly nucleotide kinase (New England Biolabs, Beverly, Mass.) and [γ-^32P] ATP (Perkin Elmer, Boston, Mass.) in 10× kinase buffer supplied with the enzyme. […] The nuclear protein was separated by electrophoresis using 4% native polyacrylamide gel and 0.25× of TBE (Tris-Borate-EDTA) as running buffer. The gels were dried and exposed to Kodax Biomax X-ray film overnight."}, "[4]": {"system": "Trx9 cells (MCF-7 clones expressing thioredoxin)", "experiment": "Flow cytometry, apoptosis as sub-G1 peak (propidium iodide)", "type": "cell-based, human", "conditions": "daunomycin 1 μM, 16 h", "procedure": "(§1) Flow cytometry. […] The cells were washed again with PBS containing 1% FBS and resuspended in 500 μl of PBS followed by fixing in 7.5 ml of ice-cold ethanol 70% added dropwise while vortexing and stored in −20° C. overnight. After two washes with PBS containing 1% FBS and resuspended in same buffer and stained with Propidium Iodide 10 μg/ml (Sigma, St. Louis, Mo.) in the presence of RNase 250 μg/ml at 37° C. for 30 min in dark. Stained cells were analyzed using Epics Elite ESP Coulter, using argon laser at 488 nm wavelength. Flow cytometric results were analyzed and apoptosis was defined as ‘sub G1’ peak (Gutierrez, 2000) using Multicycle software."}, "[5]": {"system": "vector cells (vector-only MCF-7)", "experiment": "Flow cytometry, apoptosis as sub-G1 peak (propidium iodide)", "type": "cell-based, human", "conditions": "daunomycin 1 μM, 16 h", "procedure": "as §1"}, "[6]": {"system": "Trx9 cells (MCF-7 clones expressing thioredoxin)", "experiment": "Cell proliferation assay by BrdU ELISA", "type": "cell-based, human", "conditions": "daunomycin 1 μM, 16 h", "procedure": "(§2) Cell proliferation assay. Cell proliferation assay by BrdU ELISA kit was purchased from Roche Molecular Biochemicals (Indianapolis, Ind.). For this assay cells were seeded to a final density of 5000 per well in 96 well plates and allowed to attach overnight, […] BrdU for 4-6 hr, and detected using Tetramethylbenzedine as substrate with Anti-BrdU POD at 370 nm and reference wavelength 492 nm in Spectramax 190 plate reader."}, "[7]": {"system": "vector cells (vector-only MCF-7)", "experiment": "Cell proliferation assay by BrdU ELISA", "type": "cell-based, human", "conditions": "daunomycin 1 μM, 16 h", "procedure": "as §2"}, "[8]": {"system": "Trx9 cells (MCF-7 clones expressing thioredoxin)", "experiment": "XTT cytotoxicity assay", "type": "cell-based, human", "conditions": "percent control of untreated cells", "procedure": "(§3) XTT assay. Cytotoxicity was estimated using XTT based in vitro toxicology assay kit, (Sigma Chemical Co.). This assay is based on the metabolic capacity of viable cells; the mitochondrial dehydrogenases convert XTT yielding orange formazan crystal soluble in aqueous media that is estimated spectrophotmetrically at 450 nm and a reference wavelength at 690. The assay was performed 48 hr post treatment; cells were washed and XTT added in media free of serum and phenol red, incubated for 2-4 hr and analyzed in Spectramax 190 plate reader."}, "[9]": {"system": "vector cells (vector-only MCF-7)", "experiment": "XTT cytotoxicity assay", "type": "cell-based, human", "conditions": "percent control of untreated cells", "procedure": "as §3"}, "[10]": {"system": "Trx9 cells (MCF-7 clones expressing thioredoxin)", "experiment": "Colony formation assay (clonogenic survival)", "type": "cell-based, human", "conditions": "0.1 μM daunomycin, end of 14 days", "procedure": "(§4) Colony formation assay. For determination of clonogenic survival, the cells were seeded to a final density of 1×10^6 in 100 mm dishes, allowed to attach overnight, and the following day treated with the appropriate concentration of the drug for 48 hr. The cells were trypsinized, counted and seeded to final density of 25,000 viable cells in 100 mm dishes and allowed to grow for 14 days followed by washing and staining with crystal violet."}, "[11]": {"system": "vector cells (vector-only MCF-7)", "experiment": "Colony formation assay (clonogenic survival)", "type": "cell-based, human", "conditions": "0.1 μM daunomycin, end of 14 days", "procedure": "as §4"}, "[12]": {"system": "Trx9 cells (MCF-7 clones expressing thioredoxin)", "experiment": "TUNEL assay", "type": "cell-based, human", "conditions": "Trx9 compared to vector cells; daunomycin 1 μM, 16 h", "text": "TUNEL assay. Apoptotic cells were detected using In Situ Cell Death detection, POD kit (Roche Molecular Biochemicals, Indianapolis, Ind.). Apoptotic DNA strand breaks were identified by labeling 3′-OH termini with fluorescein-dUTP using Terminal deoxy Transferase as per manufacturer's protocol. For this assay cells were allowed to adhere overnight in chambered glass slides (Nunc) to a final density of 25,000 cells per well. Followed by treatment with the appropriate concentration of drugs the media was removed and washed twice with PBS containing 1% BSA and the cells fixed in 4% paraformaldehyde for 30 min and washed with PBS containing 1% BSA. The cells were then permeabilized with 0.1% Triton X-100 in 0.1% sodium citrate for 2 min on ice and washed twice with PBS containing 1% BSA. The labeling reaction was performed using FITC labeled dUTP along with other nucleotides by terminal deoxynucleotidyl transferase for 60 mins in dark at 37° C. in humidified chamber. The cells were washed with PBS-1% BSA, mounted onto a slide, and the incorporated fluorescein-dUTP was analyzed using Nikon laser confocal microscope."}, "[13]": {"system": "Trx9 cells (MCF-7 clones expressing thioredoxin)", "experiment": "Cytochrome c release (cytosolic extract, western blotting)", "type": "cell-based, human", "conditions": "Trx9 compared to vector-only cells; daunomycin 1 μM, 16 h", "procedure": "Preparation of cytosolic extract by sub cellular fractionation. Cytosolic preparation was done as described earlier (Yang et al., 1997). Briefly, cells were harvested by centrifugation (600×g) and washed once with ice cold PBS for 10 min at 4° C. The cell pellets were resuspended in five volumes of fractionation buffer (250 mM sucrose containing 20 mM HEPES-KOH, 10 mM KCl, 1.5 mM each of sodium-EDTA and sodium- EGTA, 1 mM MgCl2, 1 mM dithiothreitol, 0.1 mM PMSF and cocktail of protease inhibitors) and incubated on ice for 30 min. Cells were then homogenized using a dounce homogenizer with type B pestle and centrifuged twice at 800×g for 10 min at 4° C. The supernatant was centrifuged at 10,000×g for 15 min at 4° C., and the resulting supernatant was then transferred to fresh tube and centrifuged at 100,000×g […] for 1 hr at 4° C. The final supernatant obtained in this centrifugation was designated as cytosolic extract and was stored in −70° C. for further analysis.\nWestern blotting. Equal amounts of protein were resolved on 10% SDS-polyacrylamide gel electrophoresis, and transferred to nitrocellulose membrane (Hybond-ECL, Amersham Pharmacia Biotech) immunoblotted with anti-p53 or anti-p53 phospho ser-15 (Cell Signaling Technology, Beverly, Mass.) and visualized using Lumiglo system with antirabbit conjugated HRP. […]"}, "[14]": {"target": "T1, E. coli thioredoxin reductase-thioredoxin system (Escherichia coli, UniProt P0A9P4)", "T1 construct": "purchased American Diagnostica Inc (thioredoxin reductase); Promega Inc (thioredoxin)", "T1 sequence (P0A9P4 2-321)": "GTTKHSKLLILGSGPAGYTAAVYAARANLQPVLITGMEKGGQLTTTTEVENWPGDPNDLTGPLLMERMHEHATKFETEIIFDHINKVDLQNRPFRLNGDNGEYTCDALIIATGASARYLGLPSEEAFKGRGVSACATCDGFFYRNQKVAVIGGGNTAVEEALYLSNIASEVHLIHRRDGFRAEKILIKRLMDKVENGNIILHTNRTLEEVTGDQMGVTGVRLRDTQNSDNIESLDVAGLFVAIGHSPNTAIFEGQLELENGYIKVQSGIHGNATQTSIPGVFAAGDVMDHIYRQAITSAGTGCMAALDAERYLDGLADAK", "experiment": "Superoxide detection by cytochrome c reduction assay with thioredoxin system", "type": "biochemical", "procedure": "Superoxide detection by cytochrome c reduction assay. Superoxide (O2—) generated in the process of redox-cycling was detected by SOD inhibitable rate of ferricytochrome c reduction (Das et al., 2000). The reaction mixture contained 0.05 M potassium phosphate buffer (pH 7.78), 1 mM EDTA, 10 μM cytochrome c and 200 μM NADPH. […] The rate of […] of cytochrome c was measured at 550 nm for 0-15 minutes using Shimadzu UV-1601PC in kinetic mode. Reaction blank contained potassium phosphate buffer, cytochrome c and NADPH with or without SOD, and controls included 0.35-0.7 μg TR and /or Trx in buffer. All reactions were performed in triplicate."}, "A549 cells": {"system": "A549 cells", "experiment": "ROS detection by DCF-DA fluorescence", "type": "cell-based, human", "conditions": "daunomycin only (1 μM)", "procedure": "In situ detection of superoxide by fluorescent probe DiCarboxyFluorescein-DiAcetate (DCF-DA). […] Cells were pre-incubated with 20 μM DCF-DA (Sigma, St. Louis, Mo.) in 20 mM Hepes in Phosphate Buffered Saline (PBS) containing bovine serum albumin (BSA, 5 mg/ml) at 37° C. for 30 min followed by washing with PBS buffer, and the drug was added and observed for 10-15 min in a Nikon laser confocal microscope using laser beam wavelength 488 nm analyzed by Ultraview software (Perkin-Elmer)."}, "[15]": {"conditions": "cited from earlier work"}}, "note": "Counter-ions that a name gives are not always drawn."}
{"compound": "Nn1nnc2ccccc21", "note": "[ABT, 1-Aminobenzotriazole]", "values": [{"measurement": "inhibition of SOD-inhibitable rate of O2— generation", "setting": "[1]; Trx9 cells", "result": 54, "unit": "%"}]}
{"compound": "c1ccc2c(c1)[I+]c1ccccc1-2", "note": "[DPIC, dipheyleneiodonium]", "values": [{"measurement": "effect on generation of O2—", "setting": "[1]; Trx9 cells, DPIC 25 or 50 μM pre-incubation, 10 μM doxorubicin", "result": "inhibited generation of O2—"}, {"measurement": "effect on p53 ser-15 phosphorylation", "setting": "p53 in Trx9 cells [2]", "result": "abolished"}, {"measurement": "effect on p53 DNA binding", "setting": "p53 in Trx9 cells [3]; DPIC 50 μM", "result": "abolished"}]}
{"compound": "O=C(O)c1ccc(/C2=C3\\C=CC(=N3)/C(c3ccc(C(=O)O)cc3)=c3/cc/c4[n]3[Mn]([Cl])[n]3c2ccc3/C(c2ccc(C(=O)O)cc2)=C2/C=CC(=N2)\\C=4c2ccc(C(=O)O)cc2)cc1", "note": "[MnTBAP]", "values": [{"measurement": "effect on p53 ser-15 phosphorylation", "setting": "p53 in Trx9 cells [2]", "result": "no appreciable decrease"}, {"measurement": "reduction in p53 DNA binding activity (densitometric analysis)", "setting": "p53 in Trx9 cells [3]", "result": "about 30%"}]}
{"compound": "Nc1ncnc2c1ncn2[C@@H]1O[C@H](COP(=O)(O)O)[C@@H](O)[C@H]1OP(=O)(O)O", "note": "[PAMP, 2′-Phospho-5′-AMP]", "values": [{"measurement": "inhibition of SOD-inhibitable rate of O2— generation", "setting": "[1]; Trx9 cells", "result": 76, "unit": "%"}]}
{"compound": "COc1cccc2c1C(=O)c1c(O)c3c(c(O)c1C2=O)C[C@@](O)(C(C)=O)C[C@@H]3O[C@H]1C[C@H](N)[C@H](O)[C@H](C)O1", "note": "[daunomycin, 5,12-Naphthacenedione, (8S-cis)-8-acetyl-10-[(3-amino-2,3,6-trideoxy-a-L-lyxo-hexanopyranosyl)oxy]-7,8,9,10-tetrahydro-6,8,11-trihydroxy-10-methoxy-, hydrochloride]", "values": [{"measurement": "percentage of apoptotic cells (sub-G1)", "setting": "[4]", "result": 23, "unit": "%"}, {"measurement": "percentage of apoptotic cells (sub-G1)", "setting": "[5]", "result": 6, "unit": "%"}, {"measurement": "level of BrdU incorporated", "setting": "[6]", "result": 60, "unit": "%"}, {"measurement": "level of BrdU incorporated", "setting": "[7]", "result": 76, "unit": "%"}, {"measurement": "percentage of cell death (XTT)", "setting": "[8]", "result": 48, "unit": "%"}, {"measurement": "percentage of cell death (XTT)", "setting": "[9]", "result": 16, "unit": "%"}, {"measurement": "clonogenic survival", "setting": "[10]", "result": "failed to propagate into colonies"}, {"measurement": "clonogenic survival", "setting": "[11]", "result": "able to propagate into several colonies"}, {"measurement": "TUNEL-positive cells", "setting": "[12]", "result": "higher number of TUNEL positive Trx9 cells"}, {"measurement": "cytochrome c release", "setting": "[13]", "result": "increased cytochrome c release"}, {"measurement": "O2— production", "setting": "[1]; Trx9 compared to vector-transfected cells, 10 μM drug", "result": "significantly higher level of O2—"}, {"measurement": "levels of O2— generated", "setting": "[14]; drug 10 μM with thioredoxin reductase alone", "result": "significantly higher levels of O2—"}, {"measurement": "SOD inhibitable rate of ferricytochrome c reduction", "setting": "[14]; drug alone, 10 μM", "result": "did not show significant level"}, {"measurement": "ROS generation (DCF-DA)", "setting": "A549 cells", "result": "ROS generation was increased"}, {"measurement": "secreted into the bile", "setting": "[15]; in vivo", "result": "~40", "unit": "%"}, {"measurement": "elimination half-life", "setting": "[15]; intravenous", "result": "about 19 hr"}, {"measurement": "absorption", "setting": "[15]; oral", "result": "poor"}]}
{"compound": "COc1cccc2c1C(=O)c1c(O)c3c(c(O)c1C2=O)C[C@@](O)([C@H](C)O)C[C@@H]3O[C@H]1C[C@H](N)[C@H](O)[C@H](C)O1", "note": "[daunorubicinol]", "values": [{"measurement": "half-life of active metabolite", "setting": "[15]; metabolite of daunorubicin", "result": "about 27 hr"}]}
